Values of other authors in patent US20080176830A1, “Compounds, Compositions, and Methods” (priority 2005, published 2008).

System: A549 cells
Conditions: data provided by National Cancer Institute

| Compound | GI50 |
| --- | --- |
| O=c1[nH]cc(F)c(=O)[nH]1 [5-fluorouracil] | 1000 nM |
| COc1cccc2c1C(=O)c1c(O)c3c(c(O)c1C2=O)C[C@@](O)(C(=O)CO)C[C@@H]3O[C@H]1C[C@H](N)[C@H](O)[C@H](C)O1 [doxorubicin] | 63 nM |
| NC(=O)NO [hydroxyurea] | 500000 nM |
| CC(=O)O[C@H]1C(=O)[C@@]2(C)[C@H]([C@H](OC(=O)c3ccccc3)[C@]3(O)C[C@H](OC(=O)[C@H](O)[C@@H](NC(=O)c4ccccc4)c4ccccc4)C(C)=C1C3(C)C)[C@]1(OC(C)=O)CO[C@@H]1C[C@@H]2O [paclitaxel] | 4 nM |
